Results taken from ChEMBL document CHEMBL3593242, “Crystal structures of the apo form and a complex of human LMW-PTP with a phosphonic acid provide new evidence of a secondary site potentially related to the anchorage of natural substrates” (Bioorg Med Chem, 2015).

Experiments:
[1] = molecular target: T1, Low molecular weight phosphotyrosine protein phosphatase (Mus musculus, UniProt Q9D358); experiment: Competitive inhibition of mouse LMW-PTP expressed in Escherichia coli using pNPP substrate by Dixon plot
T1 sequence (Q9D358 whole entry): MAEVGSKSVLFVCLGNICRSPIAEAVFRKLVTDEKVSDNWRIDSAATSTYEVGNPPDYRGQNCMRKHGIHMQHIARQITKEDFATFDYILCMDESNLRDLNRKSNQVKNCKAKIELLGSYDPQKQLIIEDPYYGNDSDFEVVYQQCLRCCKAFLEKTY

[2] = Inhibition of bovine heart acid phosphatase; design: species or system Bos taurus
[3] = molecular target: Alkaline phosphatase, placental type (Homo sapiens, UniProt P05187); experiment: Inhibition of human placental alkaline phosphatase using p-nitrophenyl phosphate substrate
[4] = Inhibition of Yersinia-protein YopH using pNPP substrate
[5] = molecular target: T2, Ectonucleotide pyrophosphatase/phosphodiesterase family member 3 (Bos taurus, UniProt P15396); experiment: Inhibition of bovine intestinal 5'-nucleotide phosphodiesterase using 4-nitrophenyl phenylphosphonate substrate by spectrophotometry
T2 sequence (P15396 whole entry): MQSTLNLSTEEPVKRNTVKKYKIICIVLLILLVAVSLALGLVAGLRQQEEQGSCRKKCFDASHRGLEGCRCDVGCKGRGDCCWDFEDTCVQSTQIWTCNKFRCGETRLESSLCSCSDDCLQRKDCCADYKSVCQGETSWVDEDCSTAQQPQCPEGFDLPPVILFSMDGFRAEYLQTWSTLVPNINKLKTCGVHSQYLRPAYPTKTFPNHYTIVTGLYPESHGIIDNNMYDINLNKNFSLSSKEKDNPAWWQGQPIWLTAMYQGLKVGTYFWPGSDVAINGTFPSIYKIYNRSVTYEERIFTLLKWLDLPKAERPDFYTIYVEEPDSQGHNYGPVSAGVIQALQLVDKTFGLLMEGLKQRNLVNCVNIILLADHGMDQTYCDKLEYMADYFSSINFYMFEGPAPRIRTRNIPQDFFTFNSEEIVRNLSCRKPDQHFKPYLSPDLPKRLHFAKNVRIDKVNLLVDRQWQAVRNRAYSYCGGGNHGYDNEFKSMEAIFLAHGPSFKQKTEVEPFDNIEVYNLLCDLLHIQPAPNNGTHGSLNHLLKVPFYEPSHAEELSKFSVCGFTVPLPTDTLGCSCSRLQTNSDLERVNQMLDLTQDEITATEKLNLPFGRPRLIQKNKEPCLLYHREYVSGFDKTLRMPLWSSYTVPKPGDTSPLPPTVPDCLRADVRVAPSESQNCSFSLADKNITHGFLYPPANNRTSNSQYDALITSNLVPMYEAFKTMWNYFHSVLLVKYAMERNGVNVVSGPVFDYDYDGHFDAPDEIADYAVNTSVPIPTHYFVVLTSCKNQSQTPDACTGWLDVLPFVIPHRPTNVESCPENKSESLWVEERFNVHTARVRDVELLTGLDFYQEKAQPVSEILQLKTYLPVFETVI

[6] = molecular target: T3, Tyrosine-protein phosphatase non-receptor type 1 (Homo sapiens, UniProt P18031); experiment: Inhibition of PTP1B (unknown origin) using […] substrate
T3 sequence (P18031 whole entry): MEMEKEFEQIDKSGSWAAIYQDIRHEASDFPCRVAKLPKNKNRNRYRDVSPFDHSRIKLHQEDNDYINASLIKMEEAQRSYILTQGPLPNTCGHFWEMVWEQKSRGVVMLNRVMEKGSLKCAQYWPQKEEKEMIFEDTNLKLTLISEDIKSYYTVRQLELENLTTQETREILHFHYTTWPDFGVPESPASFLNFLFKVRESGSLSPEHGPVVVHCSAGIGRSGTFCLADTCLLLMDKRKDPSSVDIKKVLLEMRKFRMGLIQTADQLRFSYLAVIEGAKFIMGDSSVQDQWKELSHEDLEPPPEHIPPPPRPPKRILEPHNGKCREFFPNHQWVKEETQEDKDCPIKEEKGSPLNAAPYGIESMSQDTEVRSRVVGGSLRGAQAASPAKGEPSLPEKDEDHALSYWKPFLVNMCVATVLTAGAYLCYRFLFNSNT

Sequence of Alkaline phosphatase, placental type (P05187 whole entry): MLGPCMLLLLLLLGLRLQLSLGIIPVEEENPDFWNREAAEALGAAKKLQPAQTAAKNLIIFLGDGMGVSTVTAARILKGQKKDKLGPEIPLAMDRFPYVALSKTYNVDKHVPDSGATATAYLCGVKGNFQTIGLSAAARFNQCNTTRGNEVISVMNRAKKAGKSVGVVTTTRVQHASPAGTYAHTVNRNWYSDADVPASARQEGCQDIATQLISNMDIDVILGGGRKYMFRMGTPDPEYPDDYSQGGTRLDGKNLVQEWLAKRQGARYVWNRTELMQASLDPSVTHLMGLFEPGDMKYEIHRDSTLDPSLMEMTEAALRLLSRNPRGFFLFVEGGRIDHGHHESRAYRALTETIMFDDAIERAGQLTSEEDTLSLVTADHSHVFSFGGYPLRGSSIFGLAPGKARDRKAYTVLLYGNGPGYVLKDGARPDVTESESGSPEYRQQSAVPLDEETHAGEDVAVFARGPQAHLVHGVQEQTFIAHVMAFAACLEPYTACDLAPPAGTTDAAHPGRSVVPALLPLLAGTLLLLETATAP

| SMILES | Ki [1] [µM] | Ki [2] [mM] | Ki [3] [µM] | Ki [4] [mM] | Ki [5] [mM] | Ki [6] [mM] |
| --- | --- | --- | --- | --- | --- | --- |
| O=[N+]([O-])c1ccc(CP(=O)(O)O)cc1 | 124 |  |  |  |  |  |
| O=P(O)(O)Cc1ccc(CCl)cc1 | 47 |  |  |  |  |  |
| O=P(O)(O)Cc1ccccc1 [BENZYLPHOSPHONIC ACID] |  | 4.6 | 580 | 5 | 1.4 | 3 |
